pEC50, pIC50: −log10 of the molar value.

For data set [1], the system named is NL4-3 (NLRepRluc replicating reporter virus). Description: Replicating virus assay using NLRepRluc virus (NL4-3) in MT-2 cells. It is filed as cell-based, HIV-1. Particulars: NL4-3, replicating virus assay. An excerpt: All clinical and laboratory isolates were originally obtained from the NIH AIDS Reagent Program (currently NIH HIV Reagent Program, https:hivreagentprogram.org/). The proviral clone of NL4-3 (obtained from NIH) was used to make the replicating reporter virus NLRepRluc, in which a section of the nef gene from the proviral clone of NL4-3 was replaced with the Renilla luciferase gene. Virus was produced through transfection of HEK293T cells using Lipofectamine Plus (Invitrogen, Carlsbad, CA), according to the manufacturer's instructions. […]
The NLRepRluc was used to infect MT-2 cells at a multiplicity of 0.01 for 1 hour before adding the proteins to the 96-well plates. […] After 4 days of incubation, cells were processed and quantitated for virus growth by the amount of expressed luciferase. Luciferase was quantitated using the ENDUREN substrate from Promega (Madison, WI) according to the manufacturer's instructions. Luciferase activity was measured immediately on an ENVISION multilabel plate reader (PerkinElmer, Waltham MA). EC50 values were calculated by comparing the amount of luciferase produced in the presence of antigen binding protein compared to wells where no antigen binding protein (DMSO control) was added. […]

Data set [2] relates to HIV NL4-3 virus. The data set can be described thus: In vitro resistance barrier (viral breakthrough in MT2 cells). It is filed as cell-based, HIV-1. Particulars: HIV NL4-3 in MT2 cells. How it is done:
To assess the resistance barrier of the bispecific molecules, we examined the relative rates at which HIV NL4-3 virus can escape inhibition by a panel of antibodies versus a DMSO control.
MT2 cells (2.0×10^5/well in RPMI 1640+[…] penicillin and streptomycin+10 mM HEPES buffer pH 7.55+2 mM L-glutamine. +0.2% DMSO) were pre-infected at an MOI (multiplicity of infection) of 0.005 for 2.5 hours and then pelleted to remove unbound virus particles. One mL of infected cells was added to each well of a 24 well plate.
Every 3-4 days images of the wells were captured and 1 ml of each well is removed and replaced by fresh preparations of each condition. This process was continued until there was viral breakthrough (observed cytopathic effect (CPE)>80%) or until there was a confirmed elimination of infected cells (via challenged elimination). When either condition was achieved, the sample was collected as pellet and supernatant (via centrifugation) and stored at −80° C. until genotypic analysis was performed to confirm the presence of resistance mutations. The days from infection to breakthrough were used to estimate the resistance barrier of a certain molecule. The longer it takes the virus to develop CPE, which indicates resistance, the higher the resistance barrier is.

In data set [3] the test system is HIV-2 Env-pseudotypes (HIV-2-AID, HIV-2-ATM88, HIV-2-HCC-01). The data set can be described thus: PSV assay (ACTOne cells), HIV-2 envelopes. It counts as cell-based. Particulars: PSV assay. How it is done: (§1) The anti-viral activity of the antigen binding proteins was measured in a pseudotyped virus (PSV) assay.
(§2) PSV was produced in HEK-293T cells (ATCC, Manassas VA) by co-transfecting expression plasmids encoding the HIV-1 gp160 envelope gene and an HIV-1 backbone plasmid using TRANSIT-2020 transfection reagent (Mirus Bio, Madison WI). A panel of HIV-1 PSVs expressing different gp160 envelope trimers was generated to evaluate the effectiveness of the antigen binding proteins of the invention against a wide spectrum of HIV-1 strains.
(§3) The genome of PSV used in this assay contains a luciferase gene that is expressed once the virus enters cells. Accordingly, the luminescence signal (after adding a substrate of luciferase) can be used to determine the level of viral infection.
(§4) The 50% tissue culture infectious dose (TCID) of a single thawed aliquot of each batch of PSV was determined in ACTOne cells. The ACTOne cell-line used in this assay was derived in-house from a genetically engineered 293T cell clone that expresses CD4, CXCR4, and CCR5. Cells were maintained in growth medium composed of Dulbecco's modified Eagle's medium (DMEM, Life Technologies) at 37° C. in a humidified 5% CO2-95% air environment. Cell monolayers were split by treatment with Trypsin-EDTA (0.05%).
(§5) To run the anti-viral assay, ACTOne cells were detached by treating the cell culture flask with trypsin (trypsinization) and resuspended in growth medium containing 2% of DMSO to a density of 2.5×10^5 cells/ml. One hundred μl of such cells was added to 10 μl of antigen binding protein pre-loaded in a 96-well plate. Ninety μl of PSV was then added to each well. The assay plates were incubated at 37° C. in a humidified incubator at 5% CO2 level. Plates were developed after 72 hours of incubation by adding 50 μl of BRIGHTGLO luciferase reagent (Promega, Madison WI) to each well, and transferring the plates to an ENVISION multilabel plate reader (PerkinElmer, Waltham MA) to measure the luminescence and determine the level of virus that had infected the cells. The higher the luminescence signal, the higher the level of infection.
HIV-2 differs from HIV-1 in that it originates from the transmission of simian immunodeficiency virus (SIV) from sooty mangabeys (SIVsmm) to human (Gao et al, J Virol. 1994; 68 (11): 7433-7447) whilst HIV-1 stems from the transmission from chimpanzees and western gorillas (HIV-1 group M and O, respectively). HIV-2 can also cause AIDS but is far less pathogenic and wide-spread than HIV-1 (de Silva et al, Trends Microbiol. 2008; 16 (12): 588-595; Da Silva et al, AIDS. 2008; 22 (10): 1195-1202). Though also using CD4 for infection (Sattentau et al, AIDS. 1988; 2 (2): 101-105), HIV-2 shares only 40% identity in the gp160 amino acid sequence with HIV-1, and is therefore less sensitive or insensitive to HIV-1 envelope-directed bnAbs (Kong et al, JVI 2012; 86 (2): 947-960).

Data set [4] can be described thus: Melting temperature (Tm) of soluble CD4 domains, Prometheus System. It is filed as physicochemical. The settings on record: soluble CD4 domain with C-terminal 6xHis tag. How it is done: The best performing variants (SEQ ID NOs: 5-21) were fused with 6×His tag at their C-termini, expressed and purified from mammalian cells using methods as described in Example 1, except that purification was via a Ni-NTA resin (Cytiva, Marlborough MA) instead of Mabselect SuRe column, with standard protocol from the vendor.
These purified CD4 D1 variants (with C-terminal 6xHis tag) were then evaluated to determine their melting temperature (Tm, using Prometheus System, NanoTemper, München Germany), which indicates thermal stability, as well as their anti-viral activity against HIV-1 pseudotyped virus (see Example 2 above for methods using ACTOne cells).

Data set [5] relates to panel of HIV-1 envelopes (pseudotyped HIV-1 virus). Description: PSV assay (ACTOne cells), HIV-1 envelopes. It is filed as cell-based. How it is done:
as §1, §2, §3, §4, §5

Consider “D1m_His: soluble human CD4 D1 variant mD1.22 (SEQ ID NO:4) plus C-terminal 6xHis tag [Molecule D1m_His, reference compound]”, for which the pEC50 (in general, the negative decadic logarithm of the EC50, by convention in mol/L) in data set [1] is 9.64. The “Average days before CPE” value in data set [2] (group 20x EC50) turned out to be 4 days; in data set [2] (group 30x EC50), 5 days; in data set [2] (group 40x EC50) it was 7 days. Moreover, the negative-log IC50 (pIC50) – broadly, the negative decadic logarithm of the IC50, by convention in mol/L – is 6.98 in data set [3] (envelope HIV-2-AID, ACTOne cells); 8.41 in data set [3] (envelope HIV-2-ATM88); less than 6.30 in data set [3] (envelope HIV-2-HCC-01); 8.36 in data set [5] (envelope 42368, PSV assay); 7.15 in data set [5] (envelope BJOX2000, PSV assay); 6.88 in data set [5] (envelope CAP45.2.00.G3, PSV assay). The pIC50 in data set [5] (envelope CC1/85, PSV assay) was 8.15; in data set [5] (envelope CH119, PSV assay) it was 7.04; in data set [5] (envelope LAI, PSV assay) it was 8.06; in data set [5] (envelope T278.50, PSV assay) it was 8.40; in data set [5] (envelope TRO11, PSV assay) it was 7.16; in data set [5] (envelope X1632_S2_B10, PSV assay), 7.79. Further, the pIC50 in data set [5] (envelope ZM106.9, PSV assay) was 7.58. The “Tm (° C.)” value in data set [4] came to 68.2 °C.

The values are drawn from US12583911B2, “Human immunodeficiency virus GP120 binding proteins” (ViiV Healthcare UK (No.5) Limited, priority 2022, dated 2026).
